Measured values published in US7063946B2, “Methods, reagents, kits and apparatus for protein function analysis” (Meso Scale Technologies, LLC., priority 2001, dated 2006).
Where a SMILES comes first, the peptide text is derived from it.

Key:
[1] = tested on: tyrosine kinases reported to be the target of each inhibitor; conditions: read-out: reported IC50 concentration (1× concentration); for the kinase reported to be the target of the inhibitor; cited from earlier work
EphB4 = biological target: T1, EphB4 (Mus musculus, UniProt P54761); experiment: Kinase inhibitor profiling, autophosphorylation; type: biochemical
T1 construct: specificity data for proteins generated from a library of eighteen full-length clones; host or cells: rabbit reticulocyte lysate, TnT coupled in vitro transcription/translation (cell-free)
T1 sequence (P54761 16-987): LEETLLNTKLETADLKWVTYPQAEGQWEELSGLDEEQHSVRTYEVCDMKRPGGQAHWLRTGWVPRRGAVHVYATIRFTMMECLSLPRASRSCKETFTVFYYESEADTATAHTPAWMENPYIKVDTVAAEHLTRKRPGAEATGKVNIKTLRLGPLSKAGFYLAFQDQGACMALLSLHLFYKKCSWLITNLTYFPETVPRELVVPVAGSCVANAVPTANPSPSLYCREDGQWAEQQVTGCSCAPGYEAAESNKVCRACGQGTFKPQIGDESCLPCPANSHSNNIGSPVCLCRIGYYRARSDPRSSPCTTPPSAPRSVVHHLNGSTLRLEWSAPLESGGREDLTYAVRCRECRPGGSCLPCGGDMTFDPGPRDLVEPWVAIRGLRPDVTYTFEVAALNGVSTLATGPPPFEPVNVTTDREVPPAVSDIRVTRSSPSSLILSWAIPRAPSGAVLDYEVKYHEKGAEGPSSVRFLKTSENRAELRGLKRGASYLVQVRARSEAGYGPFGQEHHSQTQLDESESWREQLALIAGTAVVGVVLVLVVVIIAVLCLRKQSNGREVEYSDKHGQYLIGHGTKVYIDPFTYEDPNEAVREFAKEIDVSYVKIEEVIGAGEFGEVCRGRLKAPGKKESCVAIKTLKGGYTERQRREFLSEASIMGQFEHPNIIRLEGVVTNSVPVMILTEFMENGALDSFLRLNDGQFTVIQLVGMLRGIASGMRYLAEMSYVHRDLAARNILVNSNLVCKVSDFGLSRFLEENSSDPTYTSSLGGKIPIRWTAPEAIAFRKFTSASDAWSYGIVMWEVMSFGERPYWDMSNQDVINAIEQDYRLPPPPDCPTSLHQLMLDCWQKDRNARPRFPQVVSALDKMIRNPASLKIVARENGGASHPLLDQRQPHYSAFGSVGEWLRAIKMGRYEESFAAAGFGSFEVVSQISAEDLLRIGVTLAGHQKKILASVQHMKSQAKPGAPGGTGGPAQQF
Procedure: Proteins were produced from DNA plasmids of Mock Luciferase, Promega, tyrosine kinase clone Spleen Tyrosine kinase (SYK, IMAGE ID# 3870426) and Eph receptor-A7 (EphA7, IMAGE ID# 3991628) (Incyte Genomics, CA) and immobilized on streptavidin or avidin coated NPT-IPR plates as described in the Example 7. To promote autophosphorylation in these immobilized and purified proteins, Mn++ ions were added in a 50 μl reaction containing 5 mM MgCl2, 5 mM MnCl2, 100 μM ATP, 25 mM Tris-HCl buffer pH 7.4, 0.05 mM Na3VO4, 0.004% TritonX-100, 2 mM DTT and EDTA-free protease inhibitor (Roche Molecular Biochemicals). This mixture was incubated with shaking at room temperature overnight to allow autophosphorylation. Following this incubation, wells were washed 2 times with TT-buffer and 2 times with water. Following this step, 50 ng Sulfo-TAG labeled anti-phosphotyrosine in buffer containing 25 mM Tris-HCl buffer pH 7.4, 5 mM MgCl2, 0.05 mM Na3VO4, 0.004% TritonX-100, 2 mM DTT and 0.05% IgG in a final volume of 50 μl was added followed by incubation at room temperature for 45 min. The unbound reagents were removed by one time washing with water, and the TAG label was detected in presence of 150 μl IPR assay buffer (0.4 mM Gly—Gly buffer, pH 7.8, 1 mM EDTA, 0.1 M TPA). The ECL signals were measured using an imaging plate reader.
Proteins were produced using 100 ng of plasmid DNA Mock (Luciferase, Promega) or tyrosine kinases (Fert2 IMAGE ID # 4485050, FGFR1 IMAGE ID # 4037899, Fgfr2 IMAGE ID # 2654352, Src IMAGE ID # 3156400, BMX IMAGE ID # 3919253, LCK IMAGE ID # 4191610, Epha7 IMAGE ID # 3991628, Ephb4 IMAGE ID # 4013934, Tek IMAGE ID # 3482498, HCK IMAGE ID # 4778819, BTK IMAGE ID # 4478463, CSK IMAGE ID # 4398416, SYK IMAGE ID # 3870426, FGR IMAGE ID # 4419973, PTK2B IMAGE ID # 4339456, FRK(IMAGE ID # 4515877, Kit IMAGE ID # 2644960, Fgfr-4 IMAGE ID # 4239139, NTRK3 IMAGE ID # 4181574, Kdr IMAGE ID # 4238984, Incyte Genomics, CA) and immobilized on SA or avidin coated NPT-IPR plates as described in previous examples. The unbound components of the translation reaction (including any endogenous kinases) were removed by 3 washes with TT-buffer (25 mM Tris-HCl buffer pH 7.4 and 0.004% Triton), two five minutes washes with high-salt wash buffer (25 mM Tris-HCl buffer pH 7.4, 0.004% Triton, 1M NaCl and 5 mM DTT) and 3 washes with TT-buffer. […] The mixture was incubated at room temperature for 10 mm before starting the kinase reaction by adding 25 μl of 200 μM ATP in buffer A. This mixture was incubated with intermittent shaking at room temperature for 2 hours to overnight to allow (a) phosphorylation of the pEY substrate and (b) autophosphorylation of the immobilized kinases. Autophosphorylation and phosphorylation of the pEY was measured as described in Examples 7 and 8.
The ECL signal in control wells produced by tyrosine kinases was compared to the wells containing inhibitor compounds. The signal produced from Mock was negligible.

[2] = tested on: N-end rule pathway ubiquitylation in reticulocyte lysate; experiment: ECL ubiquitylation assay using Sulfo-TAG-labeled streptavidin and IPR plate coated with FK2 antibody; type: biochemical, rabbit; conditions: RGS4 plasmid; for fold reduction of the RGS4 ECL signal in the presence of dipeptide inhibitor: 1 mM dipeptide; for IPR readings, Experiment 1 / IPR readings, Experiment 2: 1 mM dipeptide inhibitor with 50 μM bestatin
Procedure: Binding Buffer 2 (BB2) refers to 25 mM Tris-HCl buffer pH 7.4 containing 100 mM NaCl, 0.05 mM Na3VO4, 0.004% TritonX-100, 2 mM DTT and protease inhibitors (protease inhibitor cocktail, EDTA free, Roche Applied Science). Proteins were produced by coupled transcription/translation using TnT reaction mixes (Promega Corp, WI). The TNT Quick coupled transcription-translation system (Promega) contains rabbit reticulocyte lysate pre-mixed with most of the reaction components necessary to carry out transcription and translation in vitro (TNT mix), including all the amino acids except methionine. Unless otherwise noted, biotin-labeled in vitro translated proteins were produced in reaction mixtures that contained 8–30 μg/ml of a selected plasmid encoding protein of interest, 5 μl of TNT T7 Quick reticulocyte lysate mix (Promega Corp, WI) or TnT SP6 Quick Coupled Transcription/Translation System (Promega Corp, WI), 20 μM methionine, 50 μM MG-132 (Calbiochem, proteasome inhibitor to inhibit degradation of ubiquitylated proteins by proteasome) and 20 μg/ml biotinylated Lys-tRNA (transcend tRNA, Promega). The reactions were allowed to proceed for 20–90 min at 30° C. The reactions were stopped by the addition of BB1 supplemented with 20 mM AMP-PNP (Sigma, a non-hydrolyzable ATP analog), 20 mM N-ethylmaleimide (Sigma, an irreversible inhibitor of deubiquitylating enzymes) or, alternatively, by the addition of BB2. BB1 was used in screens involving the ubiquitination pathway. BB2 was used for other assay formats. The produced proteins were used in the assays of interest with or without further purification.
Transcription-translation reaction mixtures were prepared as described in the Example 1 except that no labeled ubiquitin was added. Some reactions also contained 1 mM dipeptide inhibitor of the N-end rule pathway (either Arg-β-Ala, or Trp-Ala) together with 50 μM bestatin as indicated (Table 2). The reaction was allowed to proceed for 20 min at 30° C. Then 1 μl of the reaction was mixed with 50 μl of BB1 supplemented with 20 mM AMP-PNP, 20 mM N-ethylmaleimide, and 2 μg/ml Sulfo-TAG-labeled streptavidin in a well of an IPR plate coated with an anti-ubiquitin antibody (FK2 antibody, Affiniti). […] In a typical assay the presence of RGS4-encoding plasmid produced a 30–100 fold higher ECL signal compared to the empty vector (FIG. 2, Table 2). This signal was reduced 3–4 fold in the presence of Arg-β-Ala (a type 1 inhibitor of the N-end rule pathway), but not in the presence of Trp-Ala (a type 2 inhibitor of the N-end rule pathway) in agreement with the previous report that RGS4 is a type 1 N-end rule substrate in reticulocyte lysates (Davydov and Varshavsky, 2000, J. Biol. Chem., 275:22931–22941). In the same assay RGS4 produced 3–5 fold higher ECL signal compared to RGS4C2V, when the same amounts of the corresponding plasmids were added to the reaction mixtures (Table 2).

[3] = tested on: N-end rule pathway ubiquitylation in reticulocyte lysates; experiment: ECL ubiquitylation assay of EST clone proteins, FK2 antibody coated IPR plate; type: biochemical, rabbit
Procedure: The following EST clones in bacteria were obtained: IMAGE ID #, 3446518, 3446518, 3446518, 3914731 (RGS4), 3914731 (RGS4), 3914731 (RGS4) (Incyte, Palo Alto). Bacteria containing EST clones were grown in 2 ml LB with 50 μg/ml Amp, and DNA was isolated using QIAprep Spin Miniprep Kit (Qiagen). DNA yield was 5–20 μg.
Proteins were prepared from the EST clones in transcription-translation reaction mixtures (total volume 12.5 uL) as described in the Materials and Methods except for the addition of 1 μM Ub aldehyde (Calbiochem). Then 1 μl of the reaction product was mixed with 50 μl of BB1 supplemented with 20 mM AMP-PNP, 20 mM N-ethylmaleimide and 2 μg/ml Sulfo-TAG-labeled streptavidin in to each well of an IPR plate coated with FK2 antibody.
As previously reported, RGS4 is a substrate of the N-end rule-dependent ubiquitylation in reticulocyte lysates (Davydov and Varshavsky, 2000, J. Biol. Chem., 275:22931–22941). To determine if the protein produced from clone 3446518 was similarly ubiquitylated through the N-end rule pathway, the ECL ubiquitylation assay was performed in the presence of dipeptide inhibitors Arg-β-Ala (type 1 inhibitor of the N-end rule pathway), or Trp-Ala (type 2 inhibitor of the same pathway). As was shown on FIG. 2, the RGS4 signal was reduced 3–4 fold in the presence of Arg-β-Ala (a type 1 inhibitor of the N-end rule pathway), but not in the presence of Trp-Ala (a type 2 inhibitor of the N-end rule pathway) in agreement with the previous report that RGS4 is a type 1 N-end rule substrate in reticulocyte lysates (Davydov and Varshavsky, 2000, J. Biol. Chem., 275:22931–22941). In contrast, the dipeptides had little effect on the assay signal from clone 3446518 (FIG. 2). Thus, a different pathway of the ubiquitin system mediates ubiquitylation of the protein produced from clone 3446518.

[4] = clone 3446518 in the presence of dipeptide inhibitor
[5] = clone 3914731 (RGS4) in the presence of dipeptide inhibitor

SMILES	IC50 [1] [nM]	Inhibition specificity towards Autophosphorylation at 10X IC50, Ephb4 (EphB4)	fold reduction of the RGS4 ECL signal in the presence of dipeptide inhibitor [2]	IPR readings, Experiment 1 [2]	IPR readings, Experiment 2 [2]	fold reduction of the RGS4 signal in the presence of dipeptide inhibitor ([3]; RGS4)	ECL readings, Experiment 1 [3, 4]	ECL readings, Experiment 2 [3, 4]	ECL readings, Experiment 3 [3, 4]	ECL readings, Experiment 1 [3, 5]	ECL readings, Experiment 2 [3, 5]	ECL readings, Experiment 3 [3, 5]
N#C/C(=C\c1ccc(O)c(O)c1)C(=O)c1ccc(O)c(O)c1 [AG-538]	60	L (low inhibition (“L”=between 50–75% of the activity remaining))										
N=C(N)NCCC[C@H](N)C(=O)NCCC(=O)O [Arg-β-Ala]			3–4 fold	6224	6184	3–4 fold	10484	10829	9665	15074	15016	14555
C[C@H](NC(=O)[C@@H](N)Cc1c[nH]c2ccccc12)C(=O)O [Trp-Ala] (H-Trp-Ala-OH)			not	19196	19268		11249	11550	11464	41229	40401	38552
